Measured values from US20040002526A1, “Phospholipase D inhibitors and uses thereof” (Cell Therapeutics, Inc., priority 2002, published 2004).
pIC50: −log10 of the molar value.

target: T1, PLD (phospholipase D); assay: In vitro assay of PLD activity ([3H]-choline release from labelled PC); type: biochemical, human; settings: Table 1, monocyclic thiazolidinones of Formula I; PLD isoform not stated; read-out: IC50
T1 construct: fused on or other part: N-terminal polyhistidine tag (pFastBac HTc) on either enzyme
Experimental: Recombinant PLD1 and PLD2—Human PLD1 and PLD2 were isolated from Sf9 insect cells that had been infected with recombinant baculovirus vector, pFastBac™HTc vector (Life Technologies, Gaithersburg, Md.), containing PLD1 or PLD2 cDNAs.
PLD1 activity was assayed by measuring the generation of [^3H]-choline from [choline-methyl^3H](16:0, 16:0)PC.
The assay procedure for PLD2 was similar to that for PLD1, with the exception that arf1, PKC-α, and GTPγS were omitted from the reaction mixture. After addition of enzymes, the reactions were incubated for 1 hour at room temperature. Twenty microliters of 12% trichloroacetic acid (TCA) then were added to each sample, to stop the reaction and to precipitate the unreacted [choline-methyl^3H](16:0, 16:0)PC. Thereafter, the samples were passed through 0.65 μm Millipore 96 well filter plates to removed the excess [choline-methyl^3H](16:0, 16:0)PC. For each sample the filtrate (50 μl), which contained the [^3H]-choline released by PLD cleavage of PC, was analyzed using a TopCount™ Liquid Scintillation Counter, a product of Packard (Meriden, Conn.).

| SMILES | pIC50 |
| --- | --- |
| O=C(O)CN1C(=O)/C(=C\c2ccc(-c3ccccc3)o2)SC1=S [Compound 1, [4-oxo-5-(5-phenyl-furan-2-ylmethylene)-2-thioxo-thiazolidin-3-yl]-acetic acid] | 5.40 |
| O=C(O)CN1C(=O)/C(=C\c2ccc(-c3cccc(Cl)c3)o2)SC1=S [Compound 3, {5-[5-(3-chloro-phenyl)-furan-2-ylmethylene]-4-oxo-2-thioxo-thiazolidin-3-yl}-acetic acid] | 5.70 |
| O=C(O)CCN1C(=O)/C(=C/c2ccc(-c3ccccc3Cl)o2)SC1=S [Compound 4, 3-{5-[5-(2-chloro-phenyl)-furan-2-ylmethylene]-4-oxo-2-thioxo-thiazolidin-3-yl}-propionic acid] | 6.10 |
| O=C(O)CN1C(=O)/C(=C\c2ccc(-c3ccccc3Cl)o2)SC1=S [Compound 5, {5-[5-(2-chloro-phenyl)-furan-2-ylmethylene]-4-oxo-2-thioxo-thiazolidin-3-yl}-acetic acid] | 5.74 |
| O=C(O)c1cccc(-c2ccc(/C=C3/SC(=S)N(c4cccc(Cl)c4)C3=O)o2)c1 [Compound 6, 3-{5-[3-(3-chloro-phenyl)-4-oxo-2-thioxo-thiazolidin-5-ylidenemethyl]-furan-2-yl}-benzoic acid] | 6.40 |
| COc1ccc(N2C(=O)/C(=C\c3ccc(-c4cccc(C(=O)O)c4)o3)SC2=S)cc1 [Compound 7, 3-{5-[3-(4-methoxy-phenyl)-4-oxo-2-thioxo-thiazolidin-5-ylidenemethyl]-furan-2-yl}-benzoic acid] | 5.89 |
| O=C(O)c1ccc(-c2ccc(/C=C3\SC(=S)N(c4cccc(C(F)(F)F)c4)C3=O)o2)cc1 [Compound 8, 4-{5-[4-oxo-2-thioxo-3-(3-trifluoromethyl-phenyl)-thiazolidin-5-ylidenemethyl]-furan-2-yl}-benzoic acid] | 5.85 |
| CCN1C(=O)/C(=C\c2ccc(-c3cccc(C(=O)O)c3)o2)SC1=S [Compound 9, 3-[5-(3-ethyl-4-oxo-2-thioxo-thiazolidin-5-ylidenemethyl)-furan-2-yl]-benzoic acid] | 6.22 |
| Cc1cccc(N2C(=O)/C(=C/c3ccc(-c4ccc(C(=O)O)cc4)o3)SC2=S)c1 [Compound 10, 4-[5-(4-oxo-2-thioxo-3-m-tolyl-thiazolidin-5-ylidenemethyl)-furan-2-yl]-benzoic acid] | 6.22 |
| Cc1cccc(N2C(=O)/C(=C/c3ccc(-c4cccc(C(=O)O)c4)o3)SC2=S)c1 [Compound 11, 3-[5-(4-oxo-2-thioxo-3-m-tolyl-thiazolidin-5-ylidenemethyl)-furan-2-yl]-benzoic acid] | > 6.40 |
| COc1ccc(N2C(=O)/C(=C\c3ccc(-c4ccc(C(=O)O)cc4)o3)SC2=S)cc1 [Compound 12, 4-{5[3-(4-methoxy-phenyl)-4-oxo-2-thioxo-thiazolidin-5-ylidenemethyl]-furan-2-yl}-benzoic acid] | > 6.40 |
| O=C(O)c1ccc(-c2ccc(/C=C3\SC(=S)N(c4cccc(F)c4)C3=O)o2)cc1 [Compound 13, 4-{5-[3-(3-fluoro-phenyl)-4-oxo-2-thioxo-thiazolidin-5-ylidenemethyl]-furan-2-yl}-benzoic acid] | 5.77 |
| O=C(O)c1ccc(-c2ccc(/C=C3\SC(=S)N(Cc4ccccc4)C3=O)o2)cc1 [Compound 14, 4-[5-(3-benzyl-4-oxo-2-thioxo-thiazolidin-5-ylidenemethyl)-furan-2-yl]-benzoic acid] | > 6.40 |
| Cc1ccc(N2C(=O)/C(=C/c3ccc(-c4ccc(C(=O)O)cc4)o3)SC2=S)c(C)c1 [Compound 15, 4-{5-[3-(2,4-dimethyl-phenyl)-4-oxo-2-thioxo-thiazolidin-5-ylidenemethyl]-furan-2-yl}-benzoic acid] | > 6.40 |
| O=C(O)c1cccc(-c2ccc(/C=C3\SC(=S)N(Cc4ccccc4)C3=O)o2)c1 [Compound 16, 3-[5-(3-benzyl-4-oxo-2-thioxo-thiazolidin-5-ylidenemethyl)-furan-2-yl]-benzoic acid] | > 6.05 |
| O=C(O)c1ccc(-c2ccc(/C=C3\SC(=S)N(C4CCCCC4)C3=O)o2)cc1 [Compound 17, 4-[5-(3-cyclohexyl-4-oxo-2-thioxo-thiazolidin-5-ylidenemethyl)-furan-2-yl]-benzoic acid] | 6.30 |
| O=C(O)c1cccc(-c2ccc(/C=C3\SC(=S)N(c4cccc(F)c4)C3=O)o2)c1 [Compound 18, 3-{5-[3-(3-fluoro-phenyl)-4-oxo-2-thioxo-thiazolidin-5-ylidenemethyl]-furan-2-yl}-benzoic acid] | > 6.40 |
| Cc1ccc(N2C(=O)/C(=C/c3ccc(-c4cccc(C(=O)O)c4)o3)SC2=S)c(C)c1 [Compound 19, 3-{5-[3-(2,4-dimethyl-phenyl)-4-oxo-2-thioxo-thiazolidin-5-ylidenemethyl]-furan-2-yl}-benzoic acid] | > 6.40 |
| C=CCN1C(=O)/C(=C\c2ccc(-c3cccc(C(=O)O)c3)o2)SC1=S [Compound 20, 3-[5-(3-allyl-4-oxo-2-thioxo-thiazolidin-5-ylidenemethyl)-furan-2-yl]-benzoic acid] | 6.30 |
| O=C(O)CCCN1C(=O)/C(=C/c2ccc(-c3ccc(Cl)c(Cl)c3)o2)SC1=S [Compound 21, 4-{5-[5-(3,4-dichloro-phenyl)-furan-2-ylidenemethyl]-4-oxo-2-thioxo-thiazolidin-3-yl}-butyric acid] | 6.40 |
| O=C(O)CCCN1C(=O)/C(=C/c2ccc(-c3ccc(O)c(O)c3)o2)SC1=S [Compound 22, 4-{5-[5-(3,4-dihydroxy-phenyl)-furan-2-ylidenemethyl]-4-oxo-2-thioxo-thiazolidin-3-yl}-butyric acid] | 5.80 |
| O=C(O)c1ccc(N2C(=O)/C(=C/C=C/c3ccccc3)SC2=S)cc1 [Compound 23, 4-[4-oxo-5-(3-phenyl-allylidene)-2-thioxo-thiazolidin-3-yl]-benzoic acid] | 5.05 |
| O=C(O)c1cccc(-c2ccc(/C=C3\SC(=S)N(C4CCCCC4)C3=O)o2)c1 [Compound 24, 3-[5-(3-Cyclohexyl-4-oxo-2-thioxo-thiazolidin-5-ylidenemethyl)-furan-2-yl]-benzoic acid] | > 6.40 |
| COC(=O)c1ccc(-c2ccc(/C=C3\SC(=S)N(Cc4cc(OC)c(OC)c(OC)c4)C3=O)o2)cc1 [Compound 26, 4-{5-[4-oxo-2-thioxo-3-(3,4,5-trimethoxy-benzyl)-thiazolidin-5-ylidenemethyl]-furan-2-yl}-benzoic acid methyl ester] | 5.52 |
| COc1cc(CN2C(=O)/C(=C/c3ccc(-c4ccc(C(=O)O)cc4)o3)SC2=S)cc(OC)c1OC [Compound 27, 4-{5-[4-oxo-2-thioxo-3-(3,4,5-trimethoxy-benzyl)-thiazolidin-5-ylidenemethyl]-furan-2-yl}-benzoic acid] | 5.52 |
| COC(=O)c1ccc(-c2ccc(/C=C3\SC(=S)N(CCCN4CCOCC4)C3=O)o2)cc1 [Compound 28, 4-{5-[3-(3-morpholin-4-yl-propyl)-4-oxo-2-thioxo-thiazolidin-5-ylidenemethyl]-furan-2-yl}-benzoic acid methyl ester] | 5.82 |
| O=C(O)c1ccc(-c2ccc(/C=C3\SC(=S)N(c4ccccc4)C3=O)o2)cc1 [Compound 29, 4-[5-(4-oxo-3-phenyl-2-thioxo-thiazolidin-5-ylidenemethyl)-furan-2-yl]-benzoic acid] | 5.40 |
